Measured values taken from patent EP0057141A2, “Esters of halogene-biphenylcarboxylates, method of preparation and their application as medicines” (PIERRE FABRE S.A., priority 1981, dated 1982).

Assay: Solubility in water and solvents
Format: physicochemical
Conditions: for Solubilités : éthanol: ethanol; for Solubilités : propylène glycol: propylene glycol; for Solubilités : eau: result in words

SMILES	Solubilités : diméthyl sulfoxyde (DMSO)	Solubilités : éthanol	Solubilités : propylène glycol	Solubilités : eau (water)	solubility (water, read-out: Solubilités : eau) [mg/mL]	Solubilités : DMA (DMA) [%]
CC(C)OC(=O)c1ccc(-c2ccccc2Cl)cc1 [Exemple 2, chloro-2' biphényl-4 carboxylate d'isopropyle]	10%	2%	1%	insoluble	–	–
CCCCCCCCOC(=O)c1ccc(-c2ccccc2Cl)cc1 [Exemple 3, chloro-2' biphényl-4 carboxylate de n-octyle]	20%	5%	0,1%	insoluble	–	–
CN(C)CCOC(=O)c1ccc(-c2ccccc2Cl)cc1 [Exemple 9, chloro-2' biphényl-4 carboxylate de diméthylamino-2 éthyle, chlorhydrate]	12%	–	–	–	100	–
CCCCCCCCCCCCCCCCOC(=O)c1ccc(-c2ccccc2Cl)cc1 [Exemple 4, chloro-2' biphényl-4 carboxylate de n-hexadecyle]	0,1%	0,5%	0,1%	insoluble	–	1
CCOC(=O)c1ccc(-c2ccccc2Cl)cc1 [Exemple 1, chloro-2' biphényl-4 carboxylate d'éthyle]	20%	5%	1%	insoluble	–	–
O=C(OCc1ccccc1)c1ccc(-c2ccccc2Cl)cc1 [Exemple 6, chloro-2' biphényl-4 carboxylate de benzyle]	20%	2%	0,2%	Insoluble	–	–
CC1CC(OC(=O)c2ccc(-c3ccccc3Cl)cc2)CC(C)(C)C1 (stereo not drawn) [Exemple 5, chloro-2^1 biphényl-4 carboxylatede triméthyl-3-3-5 clohexyle]	20%	2%	0,1%	insoluble	–	–
O=C(OCc1cccnc1)c1ccc(-c2ccccc2Cl)cc1 [Exemple 10, chloro-2' biphényl-4 carboxylate de pyridyl-3 méthyle, chlorhydrate]	12%	–	0,1%	insoluble	–	–
